The subject of assay [1] is mexB (EC) strain. Briefly: Efflux ability inhibition effect on drug efflux pump MexB (Test Examples 1 and 3): proliferation (OD595) of mexB (EC) strain with EM or LVFX at 1/4 MIC, EC75. The format is cell-based, Escherichia coli. The conditions noted are these: Table 51, Test Example 1, 16 to 20 hours culture, OD595; for EC75, mexB (EC) strain, LVFX: combined with LVFX at 1/4 MIC; for EC75, mexB (EC) strain, EM: combined with EM at 1/4 MIC. Here is the method:
The efflux ability inhibition effect of the test compound on the drug efflux pump was evaluated using the bacterial proliferative ability in the presence of EM or LVFX as an index.
EM is a macrolide antibacterial agent and is a drug that is discharged outside the bacteria by MexB and MexY LVFX is a quinolone antibacterial agent and is a drug that is discharged outside the bacteria by MexB and MexY In a case where the test compound has an efflux ability inhibitory ability against the drug efflux pump, the proliferation of bacteria is suppressed by the combined use of EM or LVFX and the test compound, as compared with the case where EM or LVFX is used alone.
A mutant strain (hereinafter, referred to as an “mexB (EC) strain”) obtained by transferring the genes of the main multidrug efflux system MexAB-OprM of Pseudomonas aeruginosa described in Nature, 2013, Vol. 500, pp. 102 to 106 as a plasmid into Escherichia coli strains in which the acrB and tolC genes of the multidrug efflux system AcrAB-TolC were deleted as described in Journal of Infection and Chemotherapy 2008, Vol. 14, pp. 23 to 29, and a gene transfer strain (hereinafter, referred to as an “mexY (EC) strain”) of another main multidrug efflux system MexXY-OprM of Pseudomonas aeruginosa were used for the evaluation of test compounds.
In the mexB (EC) strain, an expression level of MexB of the drug efflux pump is accelerated, and in the mexY (EC) strain, an expression level of MexY of the drug efflux pump is accelerated.
For culturing each Escherichia coli strain, a 96-well plate (amount of culture medium per well: 100 μL) was used and Luria-Bertani broth (LB) culture medium was used. The inoculation amount of the bacteria was set to 10^4 to 5 CFU/well.
The mexB (EC) strain and the mexY (EC) strain were cultured for 16 to 20 hours in a culture medium to which EM or LVFX and test compounds at various concentrations (0 to 800 μM) were added, and the proliferation of the bacterial strains was evaluated by optical turbidity at 595 nm (OD595). The concentration of the antibacterial agents (EM and LVFX) in the culture medium were each set to ¼ of the minimum inhibitory concentration (MIC) (hereinafter, referred to as ¼ MIC) of the single antibacterial agent.
The proliferation of bacteria in a case where the antibacterial agent was added at the concentration of ¼ MIC in a case where the test compound was not added was measured, and compared with the proliferation of bacteria in a case where the test compound was contained, and the lowest concentration of the test compound at which the proliferation was inhibited by 75% or more was defined as the drug efflux pump inhibitory ability of the test compound as 75% inhibitory effect concentration (EC75).
The drug efflux pump inhibitory ability of each test compound in a case of being used in combination with the antibacterial agent against the mexB (EC) strain and the mexY (EC) strain was evaluated as follows according to the value of EC75. • S: EC75≤[…] • A: 12.5 μM<EC75≤25 μM • B: 25 μM<EC75≤100 μM • C: […]
In the same manner as in Test Example 1, the efflux ability inhibition effect of the test compound on the drug efflux pump was evaluated using the bacterial proliferation ability in the presence of EM or LVFX as an index.

For assay [2], the system named is mexB (PA) strain. Briefly: Combinational effect with antibacterial agent against Pseudomonas aeruginosa (Test Examples 2 and 4): mexB (PA) strain with LVFX, TC or AZT at 1/4 MIC, EC99. The class given is cell-based. The conditions noted are these: mexB (PA) strain, Test Example 4; for EC99, combinational effect with AZT, mexB (PA): combined with AZT at 1/4 MIC; for EC99, combinational effect with LVFX, mexB (PA): combined with LVFX at 1/4 MIC; for EC99, combinational effect with TC, mexB (PA): combined with TC at 1/4 MIC. Put shortly:
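EC99 denotes the minimum test-compound concentration (range 0–800 μM) that suppresses ≥99% of growth, measured by OD595, when combined with ¼ MIC levofloxacin (LVFX), tetracycline or aztreonam. The efflux-pump mutant mexB (PA), expressing mainly MexAB-OprM, was inoculated at 10^4–5 CFU/well in CAMHB for 16–20 h.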

In assay [3] the test system is S-3769 strain. In words: Combinational effect with antibacterial agent against Pseudomonas aeruginosa (Test Examples 2 and 4): S-3769 strain with AMK or GM at 1/4 MIC, EC99. The class given is cell-based. The conditions noted are these: S-3769 strain, Test Example 4; for EC99, combinational effect with AMK, S-3769 strain: combined with AMK at 1/4 MIC; for EC99, combinational effect with GM, S-3769 strain: combined with GM at 1/4 MIC. The essentials:
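EC99, the lowest test-compound concentration inhibiting growth by ≥99% (OD595), was measured with aminoglycoside AMK or GM held at ¼ MIC. Strain S-3769, a MexY-overexpressing clinical isolate, was cultured in CAMHB at 10^4 to 5 CFU/well for 16–20 h; compound range 0–800 μM.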

Assay [4] relates to mexY (EC) strain. Briefly: Efflux ability inhibition effect on drug efflux pump MexY (Test Examples 1 and 3): proliferation (OD595) of mexY (EC) strain with EM or LVFX at 1/4 MIC, EC75. The class given is cell-based, Escherichia coli. Particulars: Table 53, Test Example 3, same manner as Test Example 1; for EC75, mexY (EC) strain, EM: combined with EM at 1/4 MIC; for EC75, mexY (EC) strain, LVFX: combined with LVFX at 1/4 MIC. Put shortly:
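E. coli ΔacrB/ΔtolC strains carrying P. aeruginosa MexAB-OprM or MexXY-OprM were grown in LB for 16 to 20 hours with EM or LVFX at ¼ MIC plus compound (0 to 800 μM). Growth was read as OD595. EC75 is the lowest compound concentration giving ≥75% growth inhibition versus antibiotic alone.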

The structures appear in SMILES notation. Counter-ions that a name gives are not always drawn.

Take `COc1ccccc1CN1CCN(C(=O)CN2CCC(CCc3ccccc3)(NC(C)=O)CC2)CC1` [Example 415, hydrochloride of N-(1-(2-(4-(2-methoxybenzyl)piperazin-1-yl)-2-oxoethyl)-4-phenethylpiperidin-4-yl)acetamide]: the “EC75, mexB (EC) strain, LVFX” value in assay [1] is “A (12.5 μM<EC75≤25 μM)”.
Turning to `COc1ccccc1CN1CCN(C(=O)CC2CCN(CCc3ccccc3)CC2)CC1` [Example 304, hydrochloride of 1-(4-(2-methoxybenzyl)piperazin-1-yl)-2-(1-phenethylpiperidin-4-yl)ethan-1-one], in assay [1], the “EC75, mexB (EC) strain, EM” value was “A (12.5 μM<EC75≤25 μM)” and the “EC75, mexB (EC) strain, LVFX” value was “B (25 μM<EC75≤100 μM)”.
`O=C(CN1CCN(CCc2ccccc2)CC1)N1CCN(Cc2ccccc2CO)CC1` [Example 262, Hydrochloride of 1-(4-(2-(hydroxymethyl)benzyl)piperazin-1-yl)-2-(4-phenethylpiperazin-1-yl)etban-1-one]: in assay [1], the “EC75, mexB (EC) strain, EM” value was “A (12.5 μM<EC75≤25 μM)” and the “EC75, mexB (EC) strain, LVFX” value is reported as “B (25 μM<EC75≤100 μM)”.
For `COc1cccc(F)c1C(C)N1CCN(C(=O)CN2CCN(CCc3ccccc3)CC2)CC1.Cl` (stereo not shown) [Example 269, hydrochloride of 1-(4-(1-(2-fluoro-6-methoxyphenyl)ethyl)piperazin-1-yl)-2-(4-phenethylpiperazin-1-yl)ethan-1-one], in assay [1], the “EC75, mexB (EC) strain, EM” value is “A (12.5 μM<EC75≤25 μM)” and the “EC75, mexB (EC) strain, LVFX” value is listed as “A (12.5 μM<EC75≤25 μM)”.
In the case of `COCc1ccccc1CN1CCN(C(=O)CN2CCN(CCc3ccccc3)CC2)CC1` [Example 263, Hydrochloride of 1-(4-(2-(methoxymethyl)benzyl)piperazin-1-yl)-2-(4-phenethylpiperazin-1-yl)ethan-1-one], in assay [1], the “EC75, mexB (EC) strain, EM” value is “A (12.5 μM<EC75≤25 μM)” and the “EC75, mexB (EC) strain, LVFX” value is “A (12.5 μM<EC75≤25 μM)”.
As for `O=C(CN1CCN(CCc2ccccc2)CC1)N1CCN(Cc2ccccc2F)CC1` [Example 259, hydrochloride of 1-(4-(2-fluorobenzyl)piperazin-1-yl)-2-(4-phenethylpiperazin-1-yl)ethan-1-one], the “EC75, mexB (EC) strain, EM” value in assay [1] is reported as “A (12.5 μM<EC75≤25 μM)”.
As for `N#Cc1ccccc1CN1CCN(C(=O)CN2CCN(CCc3ccccc3)CC2)CC1` [Example 234, Hydrochloride of 2-((4-(2-(4-phenethylpiperazin-1-yl)acetyl)piperazin-1-yl)methyl)benzonitrile], the “EC75, mexB (EC) strain, LVFX” value in assay [1] is listed as “B (25 μM<EC75≤100 μM)”.
Regarding `COc1ccccc1CN1CCN(C(=O)CN2CCN(CCc3ccccn3)CC2)CC1` [Example 288, 1-(4-(2-Methoxybenzyl)piperazin-1-yl)-2-(4-(2-(pyridin-2-yl)ethyl)piperazin-1-yl)ethan-1-one and hydrochloride thereof], in assay [1], the “EC75, mexB (EC) strain, EM” value is “B (25 μM<EC75≤100 μM)” and the “EC75, mexB (EC) strain, LVFX” value is listed as “B (25 μM<EC75≤100 μM)”.
For `COc1cccc(OCCN)c1CN1CCN(C(=O)CN2CCN(CCc3ccccc3)CC2)CC1` [Example 266, hydrochloride of 1-(4-(2-(2-aminoethoxy)-6-methoxybenzyl)piperazin-1-yl)-2-(4-phenethylpiperazin-1-yl)ethan-1-one], in assay [1], the “EC75, mexB (EC) strain, LVFX” value is given as “B (25 μM<EC75≤100 μM)”.
Turning to `CCOc1cccc(/C=C/c2nnn[nH]2)c1CN1CCN(C(=O)[C@H](N)C2CCN(CCc3ccccc3)CC2)CC1` [Example 33, Hydrobromide of (R,E)-1-(4-(2-(2-(1H-tetrazol-5-yl)vinyl)-6-ethoxybenzyl)piperazin-1-yl)-2-amino-2-(1-phenethylpiperidin-4-yl) ethan-1-one], in assay [1], the “EC75, mexB (EC) strain, EM” value is “B (25 μM<EC75≤100 μM)” and the “EC75, mexB (EC) strain, LVFX” value is on record as “B (25 μM<EC75≤100 μM)”.
On to `CCOc1cccc(F)c1CN1CCN(C(=O)[C@H](N)C2CCN(CCc3nsc4ccccc34)CC2)CC1` [Example 160, Hydrobromide of (R)-2-amino-2-(1-(2-(benzo[d]isothiazol-3-yl)ethyl)piperidin-4-yl)-1-(4-(2-ethoxy-6-fluorobenzyl)piperazin-1-yl)ethan-1-one], for which, in assay [1], the “EC75, mexB (EC) strain, EM” value is given as “A (12.5 μM<EC75≤25 μM)” and the “EC75, mexB (EC) strain, LVFX” value was “A (12.5 μM<EC75≤25 μM)”.
For the molecule `CCOc1cccc(F)c1CN1CCN(C(=O)[C@H](N)C2CCN(CCc3cn(-c4ccccc4F)c4ccccc34)CC2)CC1` [Example 157, Hydrobromide of (R)-2-amino-1-(4-(2-ethoxy-6-fluorobenzyl)piperazin-1-yl)-2-(1-(2-(1-(2-fluorophenyl)-1H-indol-3-yl)ethyl)piperidin-4-yl)ethan-1-one], in assay [1], the “EC75, mexB (EC) strain, EM” value is listed as “A (12.5 μM<EC75≤25 μM)” and the “EC75, mexB (EC) strain, LVFX” value is on record as “A (12.5 μM<EC75≤25 μM)”.
Consider `CSc1ccccc1CN1CCN(C(=O)[C@H](N)C2CCN(CCc3cc(Cl)ccc3-c3ccccc3Cl)CC2)CC1` [Example 555, Hydrobromide of (R)-2-amino-2-(1-(2-(2′,4-dichloro-[1,1-biphenyl]-2-yl)ethyl)piperidin-4-yl)-1-(4-(2-(methylthio)benzyl)piperazin-1-yl)ethan-1-one], for which, in assay [2], the “EC99, combinational effect with AZT, mexB (PA)” value is listed as “B (25 μM<EC99≤100 μM)”; the “EC99, combinational effect with LVFX, mexB (PA)” value is recorded as “B (25 μM<EC99≤100 μM)”; the “EC99, combinational effect with TC, mexB (PA)” value is given as “A (12.5 μM<EC99≤25 μM)”. In assay [3], the “EC99, combinational effect with AMK, S-3769 strain” value is “B (25 μM<EC99≤100 μM)” and the “EC99, combinational effect with GM, S-3769 strain” value was “B (25 μM<EC99≤100 μM)”. For the same molecule, in assay [4], the “EC75, mexY (EC) strain, EM” value was “A (12.5 μM<EC75≤25 μM)” and the “EC75, mexY (EC) strain, LVFX” value is “A (12.5 μM<EC75≤25 μM)”.
`CSc1ccccc1CN1CCN(C(=O)[C@H](N)C2CCN(CCc3cc(Cl)ccc3-c3cccc(Cl)c3)CC2)CC1` [Example 552, Hydrobromide of (R)-2-amino-2-(1-(2-(3′,4-dichloro-[1,1-biphenyl]-2-yl)ethyl)piperidin-4-yl)-1-(4-(2-(methylthio)benzyl)piperazin-1-yl)ethan-1-one]: in assay [2], the “EC99, combinational effect with AZT, mexB (PA)” value is on record as “S (EC99≤12.5 μM)”; the “EC99, combinational effect with LVFX, mexB (PA)” value is “S (EC99≤12.5 μM)”; the “EC99, combinational effect with TC, mexB (PA)” value is “S (EC99≤12.5 μM)”. In addition, in assay [3], the “EC99, combinational effect with AMK, S-3769 strain” value is “B (25 μM<EC99≤100 μM)” and the “EC99, combinational effect with GM, S-3769 strain” value was “S (EC99≤12.5 μM)”. In addition, in assay [4], the “EC75, mexY (EC) strain, EM” value is “A (12.5 μM<EC75≤25 μM)” and the “EC75, mexY (EC) strain, LVFX” value is reported as “A (12.5 μM<EC75≤25 μM)”.

The values above are taken from US20250326744A1, “PIPERAZINE DERIVATIVE OR SALT THEREOF, AND PHARMACEUTICAL COMPOSITION” (priority 2022, published 2025).
